Here are results for three molecules from patent publication US5750362A, “Methods for identifying substances with a potential herbicidal or growth-regulating action by means of plant transporter proteins, the use of the transporter proteins, and substances with a herbicidal and growth-regulating action” (BASF Aktiengesellschaft, priority 1993, dated 1998).

Data set [1] has as its target T1, sucrose transporter S21 (SoSUT1) (Spinacia oleracea, UniProt Q03411).
T1 construct: expressed in transfected cells; host or cells: Saccharomyces cerevisiae SUSY7
T1 sequence (Q03411 1-525): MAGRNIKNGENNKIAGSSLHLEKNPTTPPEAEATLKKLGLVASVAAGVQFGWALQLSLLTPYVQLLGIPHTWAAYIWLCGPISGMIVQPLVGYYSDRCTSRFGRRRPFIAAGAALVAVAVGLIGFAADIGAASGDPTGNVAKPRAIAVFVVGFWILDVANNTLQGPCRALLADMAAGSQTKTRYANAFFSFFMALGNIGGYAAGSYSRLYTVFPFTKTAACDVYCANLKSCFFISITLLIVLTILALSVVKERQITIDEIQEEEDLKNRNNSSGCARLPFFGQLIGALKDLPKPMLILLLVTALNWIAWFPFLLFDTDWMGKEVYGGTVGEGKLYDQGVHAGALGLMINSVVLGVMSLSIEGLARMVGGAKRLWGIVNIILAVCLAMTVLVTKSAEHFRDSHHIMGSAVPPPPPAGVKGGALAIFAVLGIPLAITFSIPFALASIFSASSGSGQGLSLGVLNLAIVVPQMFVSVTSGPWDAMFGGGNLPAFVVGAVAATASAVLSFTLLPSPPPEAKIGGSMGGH
Description: [14C]-sucrose uptake by yeast strain SUSY7 expressing the spinach sucrose transporter. The class given is cell-based. The settings on record: [14C]-sucrose uptake, pH 3.8; tested substance 0.1 mM. The procedure:
Yeast cells of the strain SUSY7 (Riesmeier et al., 1992, EMBO J. 11: 4705-4713) are used to identify substances which have an inhibitory effect on sucrose transporters from spinach. Cells of this strain are transformed with a cDNA sequence which codes for the sucrose transporter S21 (SoSUT1) from spinach and which ensures expression of a functional transporter in the cells. The yeast cells are cultured in minimal medium (SD+2% (w/v) sucrose, pH 3.8) at 28° C. and harvested in the logarithmic phase (OD600 =0.6). The cells are spun down at 4000 rpm for 10 minutes and washed twice with SD medium. A cell concentration of c=50 g/l in SD medium is adjusted according to the wet weight of the cells, and 200 μl aliquot fractions are taken. Before the actual reaction, the cells are incubated in 10 mM glucose for 5 min and adjusted to pH 3.8 with MES buffer. The reaction is started by adding 200 μl of a 0.2 mmol/l [14C]-sucrose solution (3 mCi/mmol) in SD medium (pH 3.8). After 20, 60, 120, 180 and 240 seconds, 70 μl portions of the suspension are removed and pipetted into 4 ml of ice-cold water in order to stop the reaction. The cells are filtered off on glass fiber filters and washed twice with ice-cold water. The radioactivity on the filters is subsequently determined in a liquid scintillation counter. The substances to be tested are added 30 seconds before addition of the sucrose. The uptake of radiolabeled sucrose without addition of a potential inhibitor is determined as one control. Cells of the strain SUSY7 which are not transformed with cDNA sequences coding for a sucrose transporter from spinach are employed as further control.
The various tested substances, their concentration and the activity of the transporter, shown as percentage activity of the control in which no potential inhibitors were added, are indicated. Substances which specifically show an inhibitory effect on the sucrose transporter S21 (SoSUT1), are tested for their herbicidal and growth-regulating effect on whole plants.

Data set [2] concerns the target T2, sucrose transporter P62 (StSUT1) (Solanum tuberosum, UniProt Q43653).
T2 construct: whole-cell [14C]-sucrose uptake; no tag or borders given
T2 sequence (Q43653 1-516): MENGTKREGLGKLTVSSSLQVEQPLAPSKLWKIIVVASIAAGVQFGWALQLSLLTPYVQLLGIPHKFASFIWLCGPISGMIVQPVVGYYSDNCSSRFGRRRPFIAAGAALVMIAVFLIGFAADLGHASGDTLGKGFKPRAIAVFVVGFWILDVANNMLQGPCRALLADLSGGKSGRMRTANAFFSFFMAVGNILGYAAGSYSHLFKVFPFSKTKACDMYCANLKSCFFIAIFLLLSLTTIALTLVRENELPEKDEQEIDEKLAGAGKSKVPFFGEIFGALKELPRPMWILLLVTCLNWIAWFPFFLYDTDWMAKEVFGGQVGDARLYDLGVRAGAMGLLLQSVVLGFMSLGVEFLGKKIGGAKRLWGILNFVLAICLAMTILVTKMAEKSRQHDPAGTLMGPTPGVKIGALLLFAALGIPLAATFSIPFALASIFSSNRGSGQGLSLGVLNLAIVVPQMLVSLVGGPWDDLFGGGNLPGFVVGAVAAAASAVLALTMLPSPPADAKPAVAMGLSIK
The experiment in a line: [14C]-sucrose uptake by yeast strain SUSY-7-P62 (StSUT1) expressing the potato sucrose transporter. The class given is cell-based. Conditions: [14C]-sucrose uptake, pH 3.8; tested substance 0.1 mM. An excerpt: Yeast cells of the strain SUSY7 (Riesmeier et al., 1992, EMBO J. 11: 4705-4713) are used to identify substances which have an inhibitory effect on sucrose transporters from potato. Cells of this strain are transformed with a cDNA sequence which codes for the sucrose transporter P62 (StSUT1) from potato (WO 94/00574, Riesmeier et al., 1993, Plant Cell 5:1591-1598) and which ensures expression of a functional transporter in the cells. The resulting yeast strain was called SUSY-7-P62 (StSUT1). The yeast cells are cultured in minimal medium (SD +2% (w/v) sucrose, pH 3.8) at 28° C. and harvested in the logarithmic phase (OD600 =0.6). The cells are spun down at 4000 rpm for 10 minutes and washed twice with SD medium. A cell concentration of c=50 g/l in SD medium is adjusted according to the wet weight of the cells, and 200 Al aliquot fractions are taken. Before the actual reaction, the cells are incubated in 10 mM glucose for 5 min and adjusted to pH 3.8 with MES buffer. The reaction is started by adding 200 Al of a 0.2 mmol/l [14C]-sucrose solution (3 mCi/mmol) in SD medium (pH 3.8). After 20, 60, 120, 180 and 240 seconds, 70 μl portions of the suspension are removed and pipetted into 4 ml of ice-cold water in order to stop the reaction. The cells are filtered off on glass fiber filters and washed twice with ice-cold water. The radioactivity on the filters is subsequently determined in a liquid scintillation counter. The substances to be tested are added 30 seconds before addition of the sucrose. The uptake of radiolabeled sucrose without addition of a potential inhibitor is determined as one control. Cells of the strain SUSY7 which are not transformed with cDNA sequences coding for a sucrose transporter from potato are employed as further control.
The various tested substances, their concentration and the activity of the transporter, shown as percentage activity of the control in which no potential inhibitors were added, are indicated.

For the next data set, the system named is sucrose transporters. The settings on record: Bush, 1989, Plant Physiol. 89: 1318-1323; result in words; cited from earlier work.
In the next data set the test system is plants. The experiment in a line: Herbicidal activity on plants. Format: in vivo. Conditions: whole plants; result in words.
The target of data set [3] is T3, ammonium transporter AMT1 (Arabidopsis thaliana, UniProt P54144).
T3 construct: expressed in transfected cells; host or cells: Saccharomyces cerevisiae 26972c (mutations in MEP1 and MEP2)
T3 sequence (P54144 1-501): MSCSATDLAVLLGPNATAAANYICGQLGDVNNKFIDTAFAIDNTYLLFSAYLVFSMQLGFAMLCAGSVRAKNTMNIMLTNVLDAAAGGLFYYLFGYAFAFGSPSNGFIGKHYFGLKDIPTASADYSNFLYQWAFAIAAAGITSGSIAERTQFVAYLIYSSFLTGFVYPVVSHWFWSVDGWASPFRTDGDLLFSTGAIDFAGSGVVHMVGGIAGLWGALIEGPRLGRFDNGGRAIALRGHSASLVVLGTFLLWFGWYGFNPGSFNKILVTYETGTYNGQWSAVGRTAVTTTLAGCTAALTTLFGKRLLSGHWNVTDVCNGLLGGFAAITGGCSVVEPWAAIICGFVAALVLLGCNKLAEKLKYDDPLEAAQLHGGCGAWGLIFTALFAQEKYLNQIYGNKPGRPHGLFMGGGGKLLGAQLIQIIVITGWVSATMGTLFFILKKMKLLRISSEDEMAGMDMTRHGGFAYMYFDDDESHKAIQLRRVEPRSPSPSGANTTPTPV
Description: Substrate specificity, Km and Ki determination of the ammonium transporter in yeast strain 26972c. Conditions: inhibition of methylamine transport by various concentrations of ammonium; read-out: Ki (inhibitor constant). Format: cell-based. How it is done:
The investigations of the substrate specificity and the Km determinations are carried out with the yeast strain .music-natural. 26972c (Dubois & Grenson, Mol. Gen. Genet. 175: 67-76, 1979) which expresses the plant ammonium transporter AMT1. The method for this is as in Example 6, except for the fact that the methylamine substrate concentration is varied. […] To determine the affinity of the transport system for ammonium, the inhibition of methylamine transport by various concentration [sic] of ammonium is determined (inhibitor constant, Ki)

Substrate in data set [4]: OC[C@H]1O[C@@](CO)(O[C@H]2O[C@H](CO)[C@@H](O)[C@H](O)[C@H]2O)[C@@H](O)[C@@H]1O
The experiment in a line: Substrate specificity and Km determination of the sucrose transporter in yeast strain SUSY7-pP62. Conditions: other: substrate of the sucrose transporter; substrate concentration varied, no inhibitors. The class given is cell-based, Solanum tuberosum. How it is done:
(§1) The investigations of the substrate specificity and the Km determination are carried out in the yeast strain SUSY7-pP62 (StSUT1) (Riesmeier et al., 1993, Plant Cell 5:1591-1598), which expresses the sucrose transporter from Solanum tuberosum. This entails carrying out the method of Example 3 apart from the fact that the substrate concentration is changed and no potential inhibitors are added. […]

Substrate in data set [5]: OC[C@H]1O[C@H](O[C@H]2[C@H](O)[C@@H](O)[C@H](O)O[C@@H]2CO)[C@H](O)[C@@H](O)[C@@H]1O
The description is as above. Format: cell-based, Solanum tuberosum. The settings on record: other: substrate of the sucrose transporter; substrate concentration varied, no inhibitors. How it is done:
as §1

For `O=S(=O)(O)c1cc[c]([Hg][Cl])cc1` [PCMBS], the figures for the “Activity relative to the control [%]” value in data set [1] and in data set [2] were 21% and 20%, respectively. Moreover, in the data set with sucrose transporters, the “Inhibition of sucrose transport” value was “highly effective transport inhibitors”. In the data set with plants, the “Herbicidal activity on plants” value is “herbicidal activity on plants”.

In the case of `N` [ammonium], the Ki in data set [3] was less than 10 µM.

B1: sucrose transporter P62 (StSUT1) (Solanum tuberosum) (protein)
chain: MENGTKREGLGKLTVSSSLQVEQPLAPSKLWKIIVVASIAAGVQFGWALQLSLLTPYVQLLGIPHKFASFIWLCGPISGMIVQPVVGYYSDNCSSRFGRRRPFIAAGAALVMIAVFLIGFAADLGHASGDTLGKGFKPRAIAVFVVGFWILDVANNMLQGPCRALLADLSGGKSGRMRTANAFFSFFMAVGNILGYAAGSYSHLFKVFPFSKTKACDMYCANLKSCFFIAIFLLLSLTTIALTLVRENELPEKDEQEIDEKLAGAGKSKVPFFGEIFGALKELPRPMWILLLVTCLNWIAWFPFFLYDTDWMAKEVFGGQVGDARLYDLGVRAGAMGLLLQSVVLGFMSLGVEFLGKKIGGAKRLWGILNFVLAICLAMTILVTKMAEKSRQHDPAGTLMGPTPGVKIGALLLFAALGIPLAATFSIPFALASIFSSNRGSGQGLSLGVLNLAIVVPQMLVSLVGGPWDDLFGGGNLPGFVVGAVAAAASAVLALTMLPSPPADAKPAVAMGLSIK
notes: whole-cell [14C]-sucrose uptake; no tag or borders given
As to B1, the Km is 1 mM in data set [4] and 10 mM in data set [5].

One may read the Ki as the dissociation constant of the complex between target and ligand, obtained from inhibition or displacement. A word on the Km: it is the substrate concentration at which the rate is half of its maximum.
